Tested on: arachidonic acid
Experiment: The Mouse Ear Edema Test (arachidonic acid-induced skin edema)
Format: in vivo, mouse (Charles River CD-1, female)
Details: for % Inhibition of Edema: 1 hour before arachidonic acid (0.5 mg)
Source text: The direct application of arachidonic acid to skin, such as the mouse ear, produces an edematous response which is believed to be mediated by eicosanoids resulting from the actions of both cyclooxygenase and lipoxygenase systems. J. M. Young, D. A. Spires, C. J. Bedford, B. Wagner, S. J. Ballaron and L. M. DeYoung, J. Invest. Dermatol. 82:367-371 (1984); E. E. Opas, R. J. Bonney, and J. L. Hanes J. Invest. Dermatol. 84:253-256 (1985). PAF has been reported to cause the release of arachidonic acid, and as a result, gives rise to increased levels of eicosanoids in the exposed tissues. F. H. Chilton, J. T. Flaherty, C. E. Walsh, M. J. Thomas, R. L. Wykle, L. R. DeChatelet and B. M. Waite, J. Biol. Chem., 257:5402-5407 (1982). Thus, the mouse ear edema test can be used to discover substances which antagonize the effects of PAF.
The test drugs were dissolved in 10 μl ethanol and applied to the inner surface of the left ears of Charles River CD-1 female mice. Control values were obtained by applying 10 μl of ethanol to the right ear so that each mouse served as its own control. One hour later, arachidonic acid (0.5 mg/ear in 10 μl ethanol) was applied to both ears and allowed to act on the skin for one hour. The mice were then killed by cervical dislocation and the ears removed so that all tissue samples were of equivalent areas. The extent of edema in each sample was measured by weighing on an analytical balance.

CCCCCc1cc(O)c2c(c1)OC(C)(C)C1CC=C(C(=O)O)CC21 (stereo not shown) [Formula I, 6a,7,10,10a-tetrahydro-6,6-dimethyl-9-carboxyl-3-pentyl-6H-dibenzo[b,d]pyran-1-ol]
% Inhibition of Edema (0.13 mg/ear topical): 0.6% | % Inhibition of Edema (0.25 mg/ear topical): 18.3% | % Inhibition of Edema (0.50 mg/ear topical): 19.1% | % Inhibition of Edema (1.0 mg/ear topical): 19.3% | reduction of arachidonic acid-induced skin edema (in words) (topical, mouse ear): effective in reducing arachidonic acid-induced skin edema | relative activity versus naproxen (topical, mouse ear): more active than the widely used antiinflammatory drug naproxen | relative potency versus indomethacin and phenidone (topical, mouse ear): approximately one half the potency of agents such as indomethacin and phenidone
